Assay results as given in patent US20080187568A1, “Polymerization with precipitation of proteins for elution in physiological solution” (priority 2007, published 2008).
Where two headings read alike, the source gives them in different places.

Key:
[1] = cited from earlier work
[2] = Solubility / precipitation of the agent in hydrogel precursor solutions
Method: (§1) 0.68 grams 4 arm-n-hydroxysuccinimide ester of polyethylene glycol and carboxymethylene-butyric acid, average molecular weight 10000 Daltons (Shearwater 4 arm CM-HBA-NS-10K) is dissolved in 2.82 g 0.01M phosphate buffer at pH 4.0 and is sterile filtered. Solution B is prepared by dissolving 0.025 grams trilysine and 10 mg bovine fibrinogen (purchased from Sigma Chemicals) in 3.47 g 0.1M borate buffer at pH 9.5 with 0.1 mg/mL methylene blue for visualization. 1 ml of solution A and B are mixed to promote condensation polymerization. Trilysine and PEG-NHS ester react to form a crosslinked hydrogel.
(§2) 1.41 grams 4 arm-n-hydroxysuccinimide ester of polyethylene glycol carboxymethylene-butyric acid, average molecular weight 10000 Daltons (Shearwater 4 arm CM-HBA-NS-10K) and 100 mg of Bone Morphogenetic Protein 2 (BMP-2 protein, recombinant, Sigma catalog B3555) are mixed in a solid state as lyophilized powders and are dissolved/suspended in 2.96 ml 0.1 M HCl just prior to use. Solution B is prepared by dissolving 0.06 grams dilysine (purchased from Sigma Chemicals) in 7.2 g 0.1M borate buffer at pH 9.5 with 0.1 mg/mL methylene blue for visualization. 1 ml of solution A and B are mixed to promote condensation polymerization between dilysine and PEG-NHS ester. Dilysine and PEG-NHS ester react to form a crosslinked hydrogel. HCl is neutralized by borate buffer to form a neutral/basic solution medium.
(§3) 1.37 grams 4 arm-n-hydroxysuccinimide ester of polyethylene glycol carboxymethylene-butyric acid, average molecular weight 10000 Daltons (Shearwater 4 arm CM-HBA-NS-10K) is dissolved in 5.64 g 0.01M phosphate buffer at pH 4.0 and is sterile filtered. Solution B is prepared by dissolving 0.050 grams trilysine and 100 mg paclitaxel in 6.94 g 0.1M borate buffer at pH 9.5 with 0.5 mg/mL methylene blue for visualization. […] Trilysine and PEG-NHS ester react to form a crosslinked hydrogel.

[3] = pH 9.5
Method: as §1, §2, §3

Compound | solubility at pH 4 [1] [g/L] | solubility at pH 7 [1] [g/L] | solubility at pH 10 [1] [g/L] | further results
COc1c(N2C[C@@H]3CCCN[C@@H]3C2)c(F)cc2c(=O)c(C(=O)O)cn(C3CC3)c12 [Moxifloxacin] | 11 | 0.13 | 0.14 | 
CO[C@H]1/C=C/O[C@@]2(C)Oc3c(C)c(O)c4c(O)c(c(/C=N/N5CCN(C)CC5)c(O)c4c3C2=O)NC(=O)/C(C)=C\C=C\[C@H](C)[C@H](O)[C@@H](C)[C@@H](O)[C@@H](C)[C@H](OC(C)=O)[C@@H]1C [Rifampicin, rifampicin] | 1.6 | 0.16 | 1000 | 
CC(C)(C)NC[C@H](O)COc1nsnc1N1CCOCC1 [Timolol] | 1000 | 160 | 2.4 | 
CC(=O)O[C@H]1C(=O)[C@@]2(C)[C@H]([C@H](OC(=O)c3ccccc3)[C@]3(O)C[C@H](OC(=O)[C@H](O)[C@@H](NC(=O)c4ccccc4)c4ccccc4)C(C)=C1C3(C)C)[C@]1(OC(C)=O)CO[C@@H]1C[C@@H]2O [paclitaxel] |  |  |  | solubility in borate buffer ([2]; 0.1M borate buffer at pH 9.5 (solution B)): insoluble
Cc1c(C)c2c(c(C)c1O)CC[C@@](C)(CCC[C@H](C)CCC[C@H](C)CCCC(C)C)O2 [vitamin E, alpha-Tocopherol] |  |  |  | solubility in borate buffer [3]: insoluble
Fibrinogen |  |  |  | precipitation on mixing with PEG-NHS ester solution ([2]; fibrinogen in trilysine solution mixed with PEG-NHS ester solution): precipitated
